Values quoted from earlier work, collected in patent US8278291B1, “Treatment of wrinkles and strias with 4-hydroxyandrostenedione or a derivative thereof” (Curadis GmbH, priority 1999, dated 2012).

Experiments:
sebaceous gland = conditions: topical, male fuzzy rat, Ye 1997
[1] = applied to the head of monkeys over 27 weeks, versus untreated individuals, Rittmaster 1987
aromatase = target: T1, aromatase (Homo sapiens, UniProt P11511); conditions: described in the literature
T1 sequence (P11511 1-503): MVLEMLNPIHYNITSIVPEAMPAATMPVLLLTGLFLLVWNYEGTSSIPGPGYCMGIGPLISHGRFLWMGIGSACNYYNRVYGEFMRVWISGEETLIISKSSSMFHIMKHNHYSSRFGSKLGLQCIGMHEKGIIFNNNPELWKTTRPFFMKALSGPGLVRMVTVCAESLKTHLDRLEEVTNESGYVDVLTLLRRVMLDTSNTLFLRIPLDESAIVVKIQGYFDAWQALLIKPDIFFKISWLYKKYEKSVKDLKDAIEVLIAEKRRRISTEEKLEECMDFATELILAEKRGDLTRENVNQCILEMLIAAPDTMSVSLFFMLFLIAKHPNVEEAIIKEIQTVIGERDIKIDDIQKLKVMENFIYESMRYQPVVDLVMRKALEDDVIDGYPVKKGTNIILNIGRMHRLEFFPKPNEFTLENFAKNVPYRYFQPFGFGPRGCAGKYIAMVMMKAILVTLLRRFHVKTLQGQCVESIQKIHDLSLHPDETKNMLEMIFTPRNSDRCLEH

5-alpha-reductase = conditions: described in the literature, higher concentrations

## CC(C)CCC[C@@H](C)[C@H]1CC[C@H]2[C@@H]3[C@@H](C)C[C@H]4N(C)C(=O)CC[C@]4(C)[C@H]3CC[C@]12C [MK 386, 4,7-beta-dimethyl-4-azacholestane-3-one]
Sebaceous gland
  effect in the sebaceous gland model compared with RU58841: much lower effects

## CC(C)(C)NC(=O)[C@H]1CC[C@H]2[C@@H]3CC[C@H]4NC(=O)C=C[C@]4(C)[C@H]3CC[C@]12C [Finasterid, N-tert-butyl-3-oxo-4-aza-5α-androst-1-ene-17-β-carboxamide]
Sebaceous gland
  effect in the sebaceous gland model compared with MK 386: little more effective than MK 386
  effect in the sebaceous gland model compared with RU58841: much lower effects

## CCN(CC)C(=O)[C@H]1CC[C@H]2[C@@H]3CC[C@H]4N(C)C(=O)CC[C@]4(C)[C@H]3CC[C@]12C [Example 4-MA, 17-beta-N,N-diethylcarbamoyl-4-methyl-4-aza-5-alpha-androstan-3-one]
[1]
  signs of boldness: did not have any signs of a boldness

## C[C@]12CCC(=O)C(O)=C1CC[C@@H]1[C@@H]2CC[C@]2(C)C(=O)CC[C@@H]12 [4-hydroxyandrostendione, 4-hydroxyandrost-4-ene-3,17-dione]
aromatase
  critical concentration for aromatase: about 3 nano mole/L
5-alpha-reductase
  concentration that can also inhibit 5-alpha-reductase: 3 micro mole/L
